Patent US10376480B2, “Biguanide derivative, a preparation method thereof, and a pharmaceutical composition containing the biguanide derivative as an active ingredient” (Immunomet Therapeutics Inc., priority 2010, dated 2019)

Columns and labels:
[1] = test system: 5′-AMP-activated protein kinase (AMPK); experiment: AMPK activation (AMPKα Thr172 phosphorylation immunoassay) in MCF7 cells; format: cell-based, human; conditions: MCF7 cells; for AMPK Activation (phosphorylated AMPKα Thr172): 50 μM compound, 24 hours; for fold induction at 50 µM: Homo sapiens, 24 h, 50 μM vs. 0 (cells without compound)
Protocol: MCF7 cells derived from human breast cancer cells were used, and an effect of a biguanide derivative on 5′-AMP-activated protein kinase (AMPK) activation was confirmed using an AMPKα immunoassay kit (Invitrogen, catalog No. KHO0651).
The MCF7 cells were put on a 6-well plate and incubated in a DMEM medium containing 10% fetal bovine serum in an incubator to which 5% CO2 was supplied to have a cell count of approximately 5×10^5. 50 μM of derivatives synthesized in the examples were treated to the each culture medium, and the cells were incubated for 24 hours. Subsequently, the cells were lysed by a method presented in the operation manual of the AMPKα immunoassay kit, and 20 μg of cell lysates were yielded through protein assay. A degree of phosphorylation of an AMPKα threonine 172nd residue (Thr172) from the cell lysates were confirmed according to a method presented in the operation manual of the AMPKα immunoassay kit to thereby obtain results.
In addition, an experiment was performed in the same manner as described in Experimental Example 2 using metformin as a control group, and the results of an effect on AMPK activation were compared to the effect on AMPK activation when 1 mM metformin was treated.

HCT116 cells = experiment: Inhibition of cancer cell proliferation (MTT, GIC50); format: cell-based; conditions: Homo sapiens, HCT-116, 48 hours incubation
Protocol: HCT116 cells derived from human colorectal cancer were used, and an effect of a biguanide derivative on the inhibition of cancer cell proliferation was confirmed by measuring a concentration value (cell growth inhibition concentration, GIC50) at which 50% of the cell growth was inhibited using a 3-(4,5-dimethylthiazol-2-yl)-2,5-diphenytetrazolium bromide (MTT) reagent.
First, HCT116 cells were put on a 96-well plate and cultured in a DMEM medium containing 10% bovine serum for 24 hours to each have cell count of approximately 5000. Subsequently, to obtain the GIC50 value of each compound, 100 μM (or 200 μM), 25 μM, 6.25 μM, 1.56 μM or 0.39 μM of the compound was treated to each culture medium and then incubated for 48 hours. To confirm living cells after treatment with the compound, MTT was added to each culture medium and further incubated for 3 hours. Generated formazane crystal was dissolved using dimethyl sulfoxide (DMSO) and absorbance of the solution was measured at 560 nm. After the 48-hour incubation, a ratio of a cell count cultured on a well plate not treated with the compound to a cell count on a well plate treated with compounds synthesized in the examples was indicated as cell viability (%) according to each administered concentration. A cell viability curve was plotted using the cell viability (%), and the calculated concentration value (GIC50) of the compound, at which 50% of the growth was inhibited was, to confirm an effect on the inhibition of cancer cell proliferation.

Which results are given for CN(C)C(=N)NC(=N)Nc1ccc(Br)cc1.Cl [Example 25, N1,N1-dimethyl-N5-(4-bromo)phenyl Biguanide Hydrochloride]?
AMPK Activation (phosphorylated AMPKα Thr172) [1]: 23.1; fold induction at 50 µM [1]: 4.4; IC50 (HCT116 cells): > 100 µM; melting point: 272 to 273 °C

Which “AMPK Activation (phosphorylated AMPKα Thr172)” value (shortened to “AMPK Activation”) [1] does the source give for CCCN(CC)C(=N)NC(=N)Nc1ccc(Cl)cc1.Cl [Example 32, N1,N1-(ethyl)(propyl)-N5-(4-chloro)phenyl Biguanide Hydrochloride] here?
The value was 5.2.

And the fold induction at 50 µM [1]?
The fold induction at 50 µM was 1.

What about the IC50 (HCT116 cells) of the same molecule?
The IC50 was over 200 µM.

What about the melting point of the same molecule?
Its melting point is 110 to 112 °C.

Which “AMPK Activation” value [1] does the source give for CCCN(CCC)C(=N)NC(=N)N(C)CCc1ccccc1.Cl [Example 38, N1,N1-dipropyl-N5,N5-(methyl)(phenethyl) Biguanide Hydrochloride] here?
The value was 35.8.

And the fold induction at 50 µM [1]?
The fold induction at 50 µM was 6.8.

What about the IC50 (HCT116 cells) of the same molecule?
The IC50 was 36 µM.

What about the melting point of the same molecule?
Its melting point is 110 to 111 °C.

What does the source list for CN(Cc1ccccc1)C(=N)NC(=N)N(C)Cc1ccccc1.Cl [Example 40, N1,N1,N5,N5-bis((benzyl)(methyl)) Biguanide Hydrochloride]?
AMPK Activation (phosphorylated AMPKα Thr172) [1]: 11.3; fold induction at 50 µM [1]: 1.7; IC50 (HCT116 cells): > 100 µM; melting point: 141 to 142 °C

Which “AMPK Activation” value [1] does the source give for CCCN(CCC)C(=N)NC(=N)N(CC)CC.Cl [Example 37, N1,N1-dipropyl-N5,N5-diethyl Biguanide Hydrochloride] here?
The value was 33.3.

And the fold induction at 50 µM [1]?
The fold induction at 50 µM was 6.3.

What about the IC50 (HCT116 cells) of the same molecule?
Its IC50 is over 100 µM.

What about the melting point of the same molecule?
The melting point was 151 to 152 °C.

For COC(=O)CCNC(=N)NC(=N)N(C)C.Cl [Example 22, N1,N1-dimethyl-N5-(methoxycarbonylethyl)biguanide Hydrochloride], which “AMPK Activation” value [1] is on record?
Its value is 3.2.

And the fold induction at 50 µM [1]?
The fold induction at 50 µM was 0.6.

And the IC50 (HCT116 cells)?
Its IC50 is over 200 µM.

And the melting point?
Its melting point is 100 to 102 °C.

Which “AMPK Activation” value [1] does the source give for Cl.N=C(NCCc1ccccc1)NC(=N)NC1CCCCCC1 [Example 15, N1-(phenethyl)-N5-cycloheptyl Biguanide Hydrochloride] here?
Its value is 7.0.

And the fold induction at 50 µM [1]?
Its fold induction at 50 µM is 1.5.

And the IC50 (HCT116 cells)?
Its IC50 is 17.2 µM.

And the melting point?
Its melting point is 135 to 137 °C.

Which “AMPK Activation” value [1] does the source give for Cl.N=C(NCCc1ccccc1)NC(=N)NCC1CC1 [Example 14, N1-(phenethyl)-N5-cyclopropylmethyl Biguanide Hydrochloride] here?
The value was 31.2.

What about the fold induction at 50 µM [1] of the same molecule?
Its fold induction at 50 µM is 5.9.

And the IC50 (HCT116 cells)?
The IC50 was 47 µM.

What about the melting point of the same molecule?
The melting point was 143 to 146 °C.

For CN(C)C(=N)NC(=N)NCCc1ccccc1.Cl [Example 29, N1,N1-dimethyl-N5-(phenethyl) Biguanide Hydrochloride], which “AMPK Activation” value [1] is on record?
The value was 14.7.

And the fold induction at 50 µM [1]?
Its fold induction at 50 µM is 2.8.

And the IC50 (HCT116 cells)?
The IC50 was over 200 µM.

And the melting point?
Its melting point is 155 to 157 °C.

Which results are given for CN(C)C(=N)NC(=N)NCC1CC1.Cl [Example 24, N1,N1-dimethyl-N5-cyclopropylmethyl Biguanide Hydrochloride]?
AMPK Activation (phosphorylated AMPKα Thr172) [1]: 5.1; fold induction at 50 µM [1]: 1; IC50 (HCT116 cells): > 200 µM; melting point: 117 to 118 °C

Which “AMPK Activation” value [1] does the source give for CCCCNC(=N)NC(=N)N(C)C.Cl [Example 18, N1,N1-dimethyl-N5-butyl Biguanide Hydrochloride] here?
The value was 4.6.

And the fold induction at 50 µM [1]?
Its fold induction at 50 µM is 0.9.

And the IC50 (HCT116 cells)?
Its IC50 is over 200 µM.

What about the melting point of the same molecule?
The melting point was 131 to 133 °C.

Which results are given for Cl.N=C(NCc1ccccc1)NC(=N)NCc1cccnc1 [Example 12, N1-benzyl-N5-(pyridine-3-yl)methyl Biguanide Hydrochloride]?
AMPK Activation (phosphorylated AMPKα Thr172) [1]: 7.8; fold induction at 50 µM [1]: 1.5; IC50 (HCT116 cells): > 200 µM; melting point: 138 to 140 °C
